Results as given in PubChem BioAssay (NCI).
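Grown in 96-well plates, cells were treated for 48 hours with each compound at five concentrations. Insufficient inhibition: endpoint recorded as highest concentration tested. The concentration for 50% growth inhibition is given as GI50. Definition used: TGI = concentration required for complete inhibition of growth.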

Columns and labels:
Assay in all cases: growth of human tumour cells (NCI), 48 h
[1] = tested on: HT29 colon
[2] = tested on: K-562 leukemia
[3] = tested on: SK-OV-3 ovarian
[4] = tested on: SK-MEL-5 melanoma
[5] = tested on: T-47D breast
[6] = tested on: KM12 colon
[7] = tested on: HCT-116 colon
[8] = tested on: HS 578T breast
[9] = tested on: PC-3 prostate
[10] = tested on: A498 renal
[11] = tested on: U251 CNS
[12] = tested on: ACHN renal
[13] = tested on: SF-539 CNS
[14] = tested on: BT-549 breast
[15] = tested on: COLO 205 colon
[16] = tested on: UACC-257 melanoma
[17] = tested on: SF-295 CNS
[18] = tested on: OVCAR-5 ovarian
[19] = tested on: SW-620 colon
[20] = tested on: RXF 393 renal
[21] = tested on: M14 melanoma
[22] = tested on: CCRF-CEM leukemia
[23] = tested on: 786-0 renal
[24] = tested on: SN12C renal
[25] = tested on: EKVX NSCLC
[26] = tested on: SK-MEL-28 melanoma
[27] = tested on: SK-MEL-2 melanoma
[28] = tested on: A549 NSCLC
[29] = tested on: MALME-3M melanoma
[30] = tested on: SF-268 CNS
[31] = tested on: HOP-92 NSCLC
[32] = tested on: SNB-75 CNS
[33] = tested on: MOLT-4 leukemia
[34] = tested on: NCI-H23 lung
[35] = tested on: HCT-15 colon
[36] = tested on: UO-31 renal
[37] = tested on: CAKI-1 renal
[38] = tested on: SNB-19 CNS
[39] = tested on: NCI-H460 lung
[40] = tested on: UACC-62 melanoma
[41] = tested on: NCI-H522 lung
[42] = tested on: NCI-H226 lung
[43] = tested on: MDA-MB-231 breast
[44] = tested on: MCF7 breast
[45] = tested on: OVCAR-3 ovarian
[46] = tested on: HL-60(TB) leukemia
[47] = tested on: HOP-62 NSCLC
[48] = tested on: OVCAR-8 ovarian
[49] = tested on: NCI/ADR-RES ovarian
[50] = tested on: IGROV1 ovarian
[51] = tested on: TK-10 renal
[52] = tested on: OVCAR-4 ovarian
[53] = tested on: HCC-2998 colon
[54] = tested on: RPMI-8226 leukemia
[55] = tested on: MDA-MB-468 breast
[56] = tested on: DU-145 prostate
[57] = tested on: LOX IMVI melanoma
[58] = tested on: SR leukemia
[59] = tested on: MDA-MB-435

SMILES: C/C(=N\N=C\c1ccc(Cl)c([N+](=O)[O-])c1)c1ccc2c(c1)Nc1ccccc1S2
- GI50 [1]: 4.26 µM
- TGI [1]: > 100 µM
- GI50 [2]: 5.37 µM
- TGI [2]: > 100 µM
- GI50 [3]: 37 µM
- TGI [3]: > 100 µM
- GI50 [4]: 7.91 µM
- TGI [4]: > 100 µM
- GI50 [5]: 6.56 µM
- TGI [5]: > 100 µM
- GI50 [6]: 9.7 µM
- TGI [6]: > 100 µM
- GI50 [7]: 4.44 µM
- TGI [7]: > 100 µM
- GI50 [8]: 7.56 µM
- TGI [8]: 62.3 µM
- GI50 [9]: 3 µM
- TGI [9]: 23.3 µM
- GI50 [10]: 31 µM
- TGI [10]: > 100 µM
- GI50 [11]: 7.43 µM
- TGI [11]: 52.4 µM
- GI50 [12]: 14.4 µM
- TGI [12]: > 100 µM
- GI50 [13]: 18.5 µM
- TGI [13]: 74.5 µM
- GI50 [14]: 17.1 µM
- TGI [14]: 91.8 µM
- GI50 [15]: 36.1 µM
- TGI [15]: > 100 µM
- GI50 [16]: 9.51 µM
- TGI [16]: > 100 µM
- GI50 [17]: 7.73 µM
- TGI [17]: 65.3 µM
- GI50 [18]: > 100 µM
- TGI [18]: > 100 µM
- GI50 [19]: 3.56 µM
- TGI [19]: > 100 µM
- GI50 [20]: 15.3 µM
- TGI [20]: 59 µM
- GI50 [21]: 72.4 µM
- TGI [21]: > 100 µM
- GI50 [22]: 4.12 µM
- TGI [22]: > 100 µM
- GI50 [23]: 26.5 µM
- TGI [23]: > 100 µM
- GI50 [24]: 44.3 µM
- TGI [24]: > 100 µM
- GI50 [25]: 5.85 µM
- TGI [25]: > 100 µM
- GI50 [26]: 17.8 µM
- TGI [26]: > 100 µM
- GI50 [27]: 43.2 µM
- TGI [27]: > 100 µM
- GI50 [28]: 12.2 µM
- TGI [28]: > 100 µM
- GI50 [29]: 10.9 µM
- TGI [29]: 41.1 µM
- GI50 [30]: 23.8 µM
- TGI [30]: > 100 µM
- GI50 [31]: 12.2 µM
- TGI [31]: 61 µM
- GI50 [32]: 15.7 µM
- TGI [32]: 93.5 µM
- GI50 [33]: 9.98 µM
- TGI [33]: > 100 µM
- GI50 [34]: 6.83 µM
- TGI [34]: 39.3 µM
- GI50 [35]: 9.1 µM
- TGI [35]: > 100 µM
- GI50 [36]: 78.2 µM
- TGI [36]: > 100 µM
- GI50 [37]: 13.7 µM
- TGI [37]: > 100 µM
- GI50 [38]: 15.8 µM
- TGI [38]: 53.6 µM
- GI50 [39]: 3.38 µM
- TGI [39]: 20 µM
- GI50 [40]: 15.1 µM
- TGI [40]: > 100 µM
- GI50 [41]: 11.6 µM
- TGI [41]: > 100 µM
- GI50 [42]: 8.48 µM
- TGI [42]: 41.9 µM
- GI50 [43]: 14.3 µM
- TGI [43]: > 100 µM
- GI50 [44]: 3.19 µM
- TGI [44]: 30 µM
- GI50 [45]: 4.46 µM
- TGI [45]: 22.5 µM
- GI50 [46]: 16.9 µM
- TGI [46]: > 100 µM
- GI50 [47]: 8.03 µM
- TGI [47]: 41.3 µM
- GI50 [48]: 6.09 µM
- TGI [48]: > 100 µM
- GI50 [49]: 5.22 µM
- TGI [49]: 53.1 µM
- GI50 [50]: 17.7 µM
- TGI [50]: > 100 µM
- GI50 [51]: 18 µM
- TGI [51]: 94.4 µM
- GI50 [52]: 4.03 µM
- TGI [52]: > 100 µM
- GI50 [53]: 5.08 µM
- TGI [53]: 19.4 µM
- GI50 [54]: 4.27 µM
- TGI [54]: > 100 µM
- GI50 [55]: 1.58 µM
- TGI [55]: 5.66 µM
- GI50 [56]: 3.76 µM
- TGI [56]: > 100 µM
- GI50 [57]: 24.8 µM
- TGI [57]: > 100 µM
- GI50 [58]: 3.49 µM
- TGI [58]: > 100 µM
- GI50 [59]: 14.4 µM
- TGI [59]: > 100 µM

SMILES: COc1cccc(COc2ccc(/C=C3\Oc4cc(O)ccc4C3=O)cc2)c1
- GI50 [1]: > 100 µM
- TGI [1]: > 100 µM
- GI50 [2]: > 100 µM
- TGI [2]: > 100 µM
- GI50 [3]: > 100 µM
- TGI [3]: > 100 µM
- GI50 [4]: > 100 µM
- TGI [4]: > 100 µM
- GI50 [6]: > 100 µM
- TGI [6]: > 100 µM
- GI50 [9]: > 100 µM
- TGI [9]: > 100 µM
- GI50 [10]: > 100 µM
- TGI [10]: > 100 µM
- GI50 [12]: 4.97 µM
- TGI [12]: > 100 µM
- GI50 [13]: 23.4 µM
- TGI [13]: > 100 µM
- GI50 [14]: > 100 µM
- TGI [14]: > 100 µM
- GI50 [15]: > 100 µM
- TGI [15]: > 100 µM
- GI50 [16]: > 100 µM
- TGI [16]: > 100 µM
- GI50 [17]: > 100 µM
- TGI [17]: > 100 µM
- GI50 [18]: > 100 µM
- TGI [18]: > 100 µM
- GI50 [19]: 23.1 µM
- TGI [19]: > 100 µM
- GI50 [20]: > 100 µM
- TGI [20]: > 100 µM
- GI50 [21]: > 100 µM
- TGI [21]: > 100 µM
- GI50 [22]: > 100 µM
- TGI [22]: > 100 µM
- GI50 [24]: > 100 µM
- TGI [24]: > 100 µM
- GI50 [25]: > 100 µM
- TGI [25]: > 100 µM
- GI50 [26]: > 100 µM
- TGI [26]: > 100 µM
- GI50 [27]: > 100 µM
- TGI [27]: > 100 µM
- GI50 [28]: > 100 µM
- TGI [28]: > 100 µM
- GI50 [29]: > 100 µM
- TGI [29]: > 100 µM
- GI50 [30]: > 100 µM
- TGI [30]: > 100 µM
- GI50 [31]: 2.62 µM
- TGI [31]: > 100 µM
- GI50 [33]: > 100 µM
- TGI [33]: > 100 µM
- GI50 [34]: > 100 µM
- TGI [34]: > 100 µM
- GI50 [35]: > 100 µM
- TGI [35]: > 100 µM
- GI50 [36]: > 100 µM
- TGI [36]: > 100 µM
- GI50 [37]: 85.2 µM
- TGI [37]: > 100 µM
- GI50 [38]: > 100 µM
- TGI [38]: > 100 µM
- GI50 [39]: > 100 µM
- TGI [39]: > 100 µM
- GI50 [40]: > 100 µM
- TGI [40]: > 100 µM
- GI50 [41]: > 100 µM
- TGI [41]: > 100 µM
- GI50 [42]: > 100 µM
- TGI [42]: > 100 µM
- GI50 [43]: > 100 µM
- TGI [43]: > 100 µM
- GI50 [44]: > 100 µM
- TGI [44]: > 100 µM
- GI50 [45]: > 100 µM
- TGI [45]: > 100 µM
- GI50 [46]: > 100 µM
- TGI [46]: > 100 µM
- GI50 [47]: > 100 µM
- TGI [47]: > 100 µM
- GI50 [48]: > 100 µM
- TGI [48]: > 100 µM
- GI50 [49]: > 100 µM
- TGI [49]: > 100 µM
- GI50 [50]: > 100 µM
- TGI [50]: > 100 µM
- GI50 [51]: > 100 µM
- TGI [51]: > 100 µM
- GI50 [52]: 2.94 µM
- TGI [52]: 10.6 µM
- GI50 [53]: > 100 µM
- TGI [53]: > 100 µM
- GI50 [54]: > 100 µM
- TGI [54]: > 100 µM
- GI50 [55]: 42.5 µM
- TGI [55]: > 100 µM
- GI50 [56]: > 100 µM
- TGI [56]: > 100 µM
- GI50 [57]: > 100 µM
- TGI [57]: > 100 µM
- GI50 [59]: > 100 µM
- TGI [59]: > 100 µM
